Test results taken from US20090130118A1, “SCUTELLARIA BARBATA EXTRACT AND COMBINATIONS FOR THE TREATMENT OF CANCER” (BIONOVO, INC., priority 2007, published 2009).

Key:
[1] = target: T1, aromatase (Homo sapiens, UniProt P11511); settings: in vivo studies; cited from earlier work
T1 sequence (P11511 1-503): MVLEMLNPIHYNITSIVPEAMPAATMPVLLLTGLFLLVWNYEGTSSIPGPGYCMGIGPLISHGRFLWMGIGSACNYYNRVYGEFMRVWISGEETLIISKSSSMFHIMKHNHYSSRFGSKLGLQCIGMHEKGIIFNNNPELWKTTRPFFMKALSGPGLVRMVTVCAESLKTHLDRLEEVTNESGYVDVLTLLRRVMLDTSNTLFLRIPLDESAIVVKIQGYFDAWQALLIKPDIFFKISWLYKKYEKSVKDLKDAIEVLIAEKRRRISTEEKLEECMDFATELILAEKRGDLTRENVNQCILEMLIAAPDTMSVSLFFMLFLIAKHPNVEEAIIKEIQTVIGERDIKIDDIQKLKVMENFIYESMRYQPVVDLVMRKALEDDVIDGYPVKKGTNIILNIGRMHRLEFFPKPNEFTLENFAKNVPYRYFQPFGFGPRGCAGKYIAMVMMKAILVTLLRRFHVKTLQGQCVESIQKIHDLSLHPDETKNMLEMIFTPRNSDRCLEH

[2] = tested on: human tumor xenographs; settings: doses from 0.75 mg/kg/day to 1.5 mg/kg/day; cited from earlier work
[3] = target: T2, GnHR receptor (Homo sapiens, UniProt P30968); settings: in vivo studies; cited from earlier work
T2 sequence (P30968 1-328): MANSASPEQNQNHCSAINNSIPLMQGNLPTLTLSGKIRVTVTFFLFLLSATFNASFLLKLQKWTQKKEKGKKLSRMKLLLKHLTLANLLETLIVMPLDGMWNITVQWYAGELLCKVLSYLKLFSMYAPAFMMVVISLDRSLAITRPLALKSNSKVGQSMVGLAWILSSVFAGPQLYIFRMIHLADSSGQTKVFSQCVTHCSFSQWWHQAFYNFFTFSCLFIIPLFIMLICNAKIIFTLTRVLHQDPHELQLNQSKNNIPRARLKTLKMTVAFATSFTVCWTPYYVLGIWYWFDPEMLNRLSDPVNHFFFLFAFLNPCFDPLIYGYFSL

[4] = target: T3, ETAR (Homo sapiens, UniProt P25101); settings: cited from earlier work
T3 sequence (P25101 21-427): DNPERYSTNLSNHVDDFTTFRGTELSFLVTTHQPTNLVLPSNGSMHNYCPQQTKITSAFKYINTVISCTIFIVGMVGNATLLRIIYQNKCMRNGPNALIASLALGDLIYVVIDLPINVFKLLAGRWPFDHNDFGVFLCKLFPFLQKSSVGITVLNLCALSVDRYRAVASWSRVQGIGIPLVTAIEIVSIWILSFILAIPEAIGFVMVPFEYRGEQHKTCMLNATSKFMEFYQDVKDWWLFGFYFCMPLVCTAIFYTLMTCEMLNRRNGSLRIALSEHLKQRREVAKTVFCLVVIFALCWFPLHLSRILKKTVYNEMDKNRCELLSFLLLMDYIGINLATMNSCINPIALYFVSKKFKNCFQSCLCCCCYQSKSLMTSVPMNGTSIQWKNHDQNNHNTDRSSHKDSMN

[5] = target: T4, ETBR (Homo sapiens, UniProt P24530); settings: cited from earlier work
T4 sequence (P24530 27-442): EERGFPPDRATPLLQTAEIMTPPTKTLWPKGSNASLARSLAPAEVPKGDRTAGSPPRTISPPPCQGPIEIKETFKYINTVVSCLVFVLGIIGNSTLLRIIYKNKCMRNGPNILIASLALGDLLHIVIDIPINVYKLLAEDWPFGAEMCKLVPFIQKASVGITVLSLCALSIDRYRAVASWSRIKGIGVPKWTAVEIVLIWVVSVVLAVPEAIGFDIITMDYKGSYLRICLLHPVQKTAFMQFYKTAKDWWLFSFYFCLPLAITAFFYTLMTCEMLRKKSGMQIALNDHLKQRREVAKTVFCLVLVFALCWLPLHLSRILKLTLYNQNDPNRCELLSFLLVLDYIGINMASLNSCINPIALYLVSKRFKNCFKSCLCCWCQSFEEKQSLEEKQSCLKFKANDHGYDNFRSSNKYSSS

[6] = tested on: subcutaneous cancer xenografts; experiment: Mouse xenograft model, oral administration; type: in vivo; settings: BZL101 0.5 ml oral gavage every third day; cyclophosphamide 25 mg/Kg/day in drinking water; FIG. 6
Method: As in Example 1, above, 10^5 cells were administered to each animal subcutaneously on Day 0. The animals were divided into four groups. The control group received only normal drinking water. The cyclophosphamide only group received 25 mg/Kg/day of cyclophosphamide in their drinking water.

[7] = tested on: estrogen receptors; settings: compared with estrodiol; cited from earlier work
[8] = target: T5, estrogen receptor (Homo sapiens, UniProt P03372); settings: cited from earlier work
T5 sequence (P03372 1-595): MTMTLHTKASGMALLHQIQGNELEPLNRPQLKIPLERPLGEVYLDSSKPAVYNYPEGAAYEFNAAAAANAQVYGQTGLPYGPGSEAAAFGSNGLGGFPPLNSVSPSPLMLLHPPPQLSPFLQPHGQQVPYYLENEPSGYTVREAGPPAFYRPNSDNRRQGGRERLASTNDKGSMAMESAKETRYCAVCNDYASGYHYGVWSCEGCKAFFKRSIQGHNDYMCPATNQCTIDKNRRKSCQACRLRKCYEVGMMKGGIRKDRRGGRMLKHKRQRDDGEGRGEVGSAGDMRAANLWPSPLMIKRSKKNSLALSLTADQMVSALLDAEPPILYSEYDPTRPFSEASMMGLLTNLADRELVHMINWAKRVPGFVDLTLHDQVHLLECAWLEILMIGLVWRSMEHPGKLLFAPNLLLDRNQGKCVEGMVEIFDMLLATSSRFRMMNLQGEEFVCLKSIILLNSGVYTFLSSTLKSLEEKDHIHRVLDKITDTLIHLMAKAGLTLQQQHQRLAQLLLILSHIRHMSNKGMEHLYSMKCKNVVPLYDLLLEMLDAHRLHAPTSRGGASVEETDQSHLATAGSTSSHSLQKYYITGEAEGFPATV

In the case of `CC(C)(C#N)c1cc(Cn2cncn2)cc(C(C)(C)C#N)c1` [Anastrozole], the serum estradiol concentrations [1] is listed as “significantly lowers serum estradiol concentrations”.
For `COc1cc2c(Oc3ccc4[nH]c(C)cc4c3F)ncnc2cc1OCCCN1CCCC1` [AZD 2171], the tumor angiogenesis [2] is listed as “inhibited tumor angiogenesis”.
In the case of `CC(C)C[C@H](NC(=O)[C@@H](COC(C)(C)C)NC(=O)[C@H](Cc1ccc(O)cc1)NC(=O)[C@H](CO)NC(=O)[C@H](Cc1c[nH]c2ccccc12)NC(=O)[C@H](Cc1cnc[nH]1)NC(=O)[C@@H]1CCC(=O)N1)C(=O)N[C@@H](CCCNC(=N)N)C(=O)N1CCC[C@H]1C(=O)NNC(N)=O` [Goserelin], the “production of FSH and LH and sex hormones, initial effect” value [3] is listed as “initial increase in production of FSH and LH” and the “time after which the receptor is downregulated and LH or FSH levels fall” value [3] is listed as 14 to 21 days.
In the case of `COc1nc(C)cnc1NS(=O)(=O)c1cccnc1-c1ccc(-c2nnco2)cc1` [ZD4054], the “binding to ETAR” value [4] is given as “only binds to ETAR” and the “effect on ETBR” value [5] is given as “no detectable effect on ETBR”.
In the case of `O=P1(N(CCCl)CCCl)NCCCO1` (stereo not drawn) [cyclophosphamide], the “tumor growth in xenograft” value [6] is reported as “inhibited tumor growth as compared to the control”.
For `C[C@]12CC[C@@H]3c4ccc(O)cc4C[C@@H](CCCCCCCCC[S+]([O-])CCCC(F)(F)C(F)(F)F)[C@H]3[C@@H]1CC[C@@H]2O` (stereo partly drawn) [Fulvestrant], the “affinity for estrogen receptors” value [7] is listed as “affinity that is similar to that of estrodiol” and the “effect on estrogen receptor level” value [8] is listed as “downregulates and degrades the estrogen receptor”.
